Twelve compounds from patent US6960568B2, “Nucleosides and related processes, pharmaceutical compositions and methods” (Yale University, priority 2002, dated 2005) can be followed below.

Series [1] relates to L1210, P388, CCRF-CEM and B16F10 cells. The series can be described thus: Cytotoxicity against the panel of neoplastic cell lines, summary in words. Type of series: cell-based. The following applies: concentrations up to 100 μM. Here is the method:
(§1) The synthesized compounds were evaluated in vitro for their cytotoxicity against the L1210 and P388 leukemias, the CCRF-CEM lymphoblastic leukemia, and the B16F10 melanoma cell lines and the results are shown in Table 2.

Series [2] concerns B16F10 melanoma cells. Put plainly: Cytotoxicity against B16F10 melanoma cell line in vitro. The following applies: Mus musculus, B16-F10; drug concentration required to inhibit cancer cell replication by 50%; tested up to 100 μM. Type of series: cell-based. The procedure: as §1
Series [3] deals with P388 leukemia cells. The series can be described thus: Cytotoxicity against P388 leukemia cell line in vitro. Type of series: cell-based. Particulars: Mus musculus, drug concentration required to inhibit cancer cell replication by 50%, tested up to 100 μM. Here is the method: as §1
The test system of series [4] is CCRF-CEM lymphoblastic leukemia cells. Put plainly: Cytotoxicity against CCRF-CEM lymphoblastic leukemia cell line in vitro. Type of series: cell-based. The following applies: Homo sapiens, drug concentration required to inhibit cancer cell replication by 50%, tested up to 100 μM. Here is the method:
as §1

Series [5] has as its system L1210 leukemia cells. The series can be described thus: Cytotoxicity against L1210 leukemia cell line in vitro. Type of series: cell-based. Particulars: Mus musculus, drug concentration required to inhibit cancer cell replication by 50%, tested up to 100 μM. Here is the method: as §1
Series [6] concerns hepatitis B virus (HBV). The series can be described thus: Antiviral assay against hepatitis B virus in vitro. Type of series: cell-based. Particulars: maximum tested concentration 10 μM. The procedure: Antiviral assays were performed against hepatitis B virus (HBV) and human immunodeficiency virus (HIV-IIIB) in vitro as previously described. Lin, T. S.; Luo, M. Z.; Liu, M. C.; Pai, S. B.; Dutschman, G. E.; Cheng, Y. C., J. Med. Chem. 1994 37, 798-803.

pEC50, pIC50: −log10 of the molar value.

`Nc1nc(F)cc2c1ncn2[C@@H]1O[C@H](CO)[C@@H](O)[C@H]1O` [Compound 38, 4-Amino-6-fluoro-1-(β-D-ribofuranosyl)imidazo[4,5-c]pyridine]: the “activity against these neoplastic cell lines (in words)” value (from here on “activity”) in series [1] is “moderate to weak activities”. Further, the pIC50 (in general, −log10 of the IC50, conventionally taken in molar units) in series [2] was 4.40; in series [3], 4.30; in series [4] it was 4.00; in series [5] it was 4.46.
Turning to `CNc1nc(F)cc2c1ncn2[C@@H]1O[C@H](CO)[C@@H](O)[C@H]1O` [Compound 39, 6-Fluoro-4-methylamino-1-(β-D-ribofuranosyl)imidazo[4,5-c]pyridine], the pIC50 in series [2] was below 4.00; in series [3], below 4.00; in series [4], 4.00; in series [5] it was below 4.00.
Regarding `Nc1nc(F)cc2c1ncn2[C@@H]1O[C@H](CO)[C@@H](O)[C@@H]1O` [Compound 43, 4-Amino-6-fluoro-1-β-D-arabinofuranosylimidazo[4,5-c]pyridine], the pIC50 in series [2], in series [3], in series [4] and in series [5] was below 4.00 in each case.
In the case of `Nc1nc(F)cc2c1ncn2[C@H]1O[C@H](CO)[C@@H](O)[C@@H]1O` [Compound 44, 4-Amino-6-fluoro-1-α-D-arabinofuranosylimidazo[4,5-c]pyridine], the melting point – broadly, the temperature of the solid-liquid transition – is 198 °C (dec.). In series [2], this compound showed a negative logarithm of the IC50 (pIC50) below 4.00. Moreover, the pIC50 in series [3] was below 4.00. Besides, the pIC50 in series [4] is below 4.00. The pIC50 in series [5] was below 4.00.
Regarding `Nc1ncc(F)c2c1ncn2[C@@H]1O[C@H](CO)[C@@H](O)[C@H]1O` [Compound 51, 4-Amino-7-fluoro-1-(β-D-ribofuranosyl)imidazo[4,5-c]pyridine], in series [1], the “activity” value is given as “moderate to weak activities”. Besides, the pEC50 – broadly, −log10 of the EC50, conventionally taken in molar units – in series [6] was 5.04. The pIC50 in series [2] was 4.35; in series [3], 4.00; in series [4], 4.22; in series [5], 4.82.
On to `Nc1ncc(Cl)c2c1ncn2[C@@H]1O[C@H](CO)[C@@H](O)[C@H]1O` [Compound 52, 4-Amino-7-chloro-1-(β-D-ribofuranosyl)imidazo[4,5-c]pyridine], for which the melting point is 169 °C (dec.). This compound also had a pIC50 in series [2] below 4.00. The compound further had a pIC50 in series [3] below 4.00. This compound also gave a pIC50 in series [4] below 4.00. This compound gave a pIC50 in series [5] below 4.00.
Compound `Nc1nc(F)c(F)c2c1ncn2[C@@H]1O[C@H](CO)[C@@H](O)[C@H]1O` [Compound 57, 4-Amino-6,7-difluoro-1-(β-D-ribofuranosyl)imidazo[4,5-c]pyridine] showed a melting point of 163 to 165 °C. Also, the “activity” value in series [1] is recorded as “moderate to weak activities”. The pIC50 in series [2] was 4.00. In addition, the pIC50 in series [3] is 4.05. For the same compound, in series [4], the pIC50 was 4.40. Moreover, the pIC50 in series [5] was 4.05.
Turning to `Nc1nc(F)c(F)c2ncn([C@@H]3O[C@H](CO)[C@@H](O)[C@H]3O)c12` [Compound 58, 4-Amino-6,7-difluoro-3-(β-D-ribofuranosyl)imidazo[4,5-c]pyridine], the melting point was in the range of 155 to 157 °C. The compound also showed a pEC50 in series [6] of at most 5.00. Also, the pIC50 in series [2] was below 4.00. Further, the pIC50 in series [3] is below 4.00. The compound also gave a pIC50 in series [4] below 4.00. In series [5], this compound gave a pIC50 below 4.00.
The compound `Nc1nc(F)c(Cl)c2c1ncn2[C@@H]1O[C@H](CO)[C@@H](O)[C@H]1O` [Compound 59, 4-Amino-7-chloro-6-fluoro-1-(β-D-ribofuranosyl)imidazo[4,5-c]pyridine] showed a melting point of 175 to 177 °C. For the same compound, the “activity” value in series [1] is “moderate to weak activities”. In series [6], this compound showed a pEC50 of 5.12. The compound also gave a pIC50 in series [2] of 4.00. In series [3], the pIC50 is 4.05. This compound also showed a pIC50 in series [4] of 4.22. The compound further gave a pIC50 in series [5] of 4.26.
In turn, `Nc1nc(F)c(Cl)c2ncn([C@@H]3O[C@H](CO)[C@@H](O)[C@H]3O)c12` [Compound 60, 4-Amino-7-chloro-6-fluoro-3-(β-D-ribofuranosyl)imidazo[4,5-c]pyridine] displayed a melting point of 166 to 168 °C. The same compound gave a pIC50 in series [2] below 4.00. In series [3], this compound gave a pIC50 below 4.00. The same compound showed a pIC50 in series [4] below 4.00. The same compound showed a pIC50 in series [5] below 4.00.
Take `Nc1[nH]c(=O)c2ncn([C@@H]3O[C@H](CO)[C@@H](O)[C@H]3O)c2c1Cl` [Compound 61, 6-Amino-7-chloro-1,5-dihydro-1-β-D-ribofuranosylimidazo[4,5-c]pyridin-4-one]: the pIC50 in series [2] is 4.46; in series [3], 4.40; in series [4] it was 4.52; in series [5], 4.92.
As to `Nc1[nH]c(=O)c2ncn([C@@H]3O[C@H](CO)[C@@H](O)[C@H]3O)c2c1Br` [Compound 62, 6-Amino-7-bromo-1,5-dihydro-1-β-D-ribofuranosylimidazo[4,5-c]pyridin-4-one], the pIC50 is 5.15 in series [2], 5.15 in series [3], 5.05 in series [4] and 5.52 in series [5].
